Laboratory results: ChEMBL document CHEMBL5465560, “Selectivity Literature for EUbOPEN Chemogenomic Library” (2024)

How the values were obtained:
[1] = biological target: T1, Cyclin-G-associated kinase (Homo sapiens) (UniProt O14976); experiment: Selectivity interaction (KinomeScan (DiscoverX)) EUB0000229b GAK; details: at 10 µM
T1 sequence (whole entry): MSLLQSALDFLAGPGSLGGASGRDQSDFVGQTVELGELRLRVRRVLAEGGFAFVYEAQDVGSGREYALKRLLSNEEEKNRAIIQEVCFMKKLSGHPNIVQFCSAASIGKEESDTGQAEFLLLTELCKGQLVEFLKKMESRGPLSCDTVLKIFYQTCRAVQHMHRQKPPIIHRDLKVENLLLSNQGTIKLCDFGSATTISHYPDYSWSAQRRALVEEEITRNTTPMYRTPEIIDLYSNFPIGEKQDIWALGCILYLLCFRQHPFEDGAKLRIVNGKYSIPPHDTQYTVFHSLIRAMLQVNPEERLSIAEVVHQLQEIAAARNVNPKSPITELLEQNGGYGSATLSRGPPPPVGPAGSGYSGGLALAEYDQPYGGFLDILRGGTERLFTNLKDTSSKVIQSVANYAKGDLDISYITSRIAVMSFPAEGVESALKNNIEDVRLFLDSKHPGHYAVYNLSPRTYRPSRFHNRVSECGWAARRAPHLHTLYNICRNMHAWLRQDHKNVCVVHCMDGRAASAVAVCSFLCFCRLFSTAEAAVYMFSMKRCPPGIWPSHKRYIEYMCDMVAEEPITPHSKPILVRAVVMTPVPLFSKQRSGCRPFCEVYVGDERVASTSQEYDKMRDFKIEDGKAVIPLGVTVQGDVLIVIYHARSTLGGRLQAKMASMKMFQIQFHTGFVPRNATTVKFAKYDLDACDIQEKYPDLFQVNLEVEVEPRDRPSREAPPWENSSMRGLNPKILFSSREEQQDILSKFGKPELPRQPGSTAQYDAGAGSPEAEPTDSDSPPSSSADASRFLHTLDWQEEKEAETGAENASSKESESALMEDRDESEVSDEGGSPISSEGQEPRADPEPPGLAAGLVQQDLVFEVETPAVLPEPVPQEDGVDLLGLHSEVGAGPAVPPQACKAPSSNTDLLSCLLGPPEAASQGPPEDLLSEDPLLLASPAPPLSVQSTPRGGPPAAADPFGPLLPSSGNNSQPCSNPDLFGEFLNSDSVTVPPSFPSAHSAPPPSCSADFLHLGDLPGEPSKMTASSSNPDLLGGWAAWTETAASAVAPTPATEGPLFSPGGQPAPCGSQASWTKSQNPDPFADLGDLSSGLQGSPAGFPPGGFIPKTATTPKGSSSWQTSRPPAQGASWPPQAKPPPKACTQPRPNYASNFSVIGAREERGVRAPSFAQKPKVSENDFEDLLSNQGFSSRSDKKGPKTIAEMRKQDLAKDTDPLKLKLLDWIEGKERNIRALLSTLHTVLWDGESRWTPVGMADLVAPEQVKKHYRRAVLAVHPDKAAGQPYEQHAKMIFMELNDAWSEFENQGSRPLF

[2] = biological target: Serine/threonine-protein kinase NIM1 (Homo sapiens, UniProt Q8IY84); experiment: Selectivity interaction (Kinase panel (Z-LYTE Assay)) EUB0001632a NIM1K; details: at 10 µM
[3] = biological target: Tyrosine-protein kinase Blk (Homo sapiens) (UniProt P51451); experiment: Selectivity interaction (Kinase panel (Z-LYTE Assay)) EUB0001632a BLK; details: at 10 µM
[4] = biological target: Casein kinase I isoform alpha (Homo sapiens, UniProt P48729); experiment: Selectivity interaction (SelectScreen profiling (Invitrogen)) EUB0000607a CSNK1A1; details: at 2 µM
[5] = biological target: T2, Serine/threonine-protein kinase LATS2 (Homo sapiens) (UniProt Q9NRM7); experiment: Selectivity interaction (Ambit KINOMEscan and KiNATiv profiling in Jurkat cells) EUB0000090b LATS2; type: cell-based; details: at 1 µM
T2 sequence (whole entry): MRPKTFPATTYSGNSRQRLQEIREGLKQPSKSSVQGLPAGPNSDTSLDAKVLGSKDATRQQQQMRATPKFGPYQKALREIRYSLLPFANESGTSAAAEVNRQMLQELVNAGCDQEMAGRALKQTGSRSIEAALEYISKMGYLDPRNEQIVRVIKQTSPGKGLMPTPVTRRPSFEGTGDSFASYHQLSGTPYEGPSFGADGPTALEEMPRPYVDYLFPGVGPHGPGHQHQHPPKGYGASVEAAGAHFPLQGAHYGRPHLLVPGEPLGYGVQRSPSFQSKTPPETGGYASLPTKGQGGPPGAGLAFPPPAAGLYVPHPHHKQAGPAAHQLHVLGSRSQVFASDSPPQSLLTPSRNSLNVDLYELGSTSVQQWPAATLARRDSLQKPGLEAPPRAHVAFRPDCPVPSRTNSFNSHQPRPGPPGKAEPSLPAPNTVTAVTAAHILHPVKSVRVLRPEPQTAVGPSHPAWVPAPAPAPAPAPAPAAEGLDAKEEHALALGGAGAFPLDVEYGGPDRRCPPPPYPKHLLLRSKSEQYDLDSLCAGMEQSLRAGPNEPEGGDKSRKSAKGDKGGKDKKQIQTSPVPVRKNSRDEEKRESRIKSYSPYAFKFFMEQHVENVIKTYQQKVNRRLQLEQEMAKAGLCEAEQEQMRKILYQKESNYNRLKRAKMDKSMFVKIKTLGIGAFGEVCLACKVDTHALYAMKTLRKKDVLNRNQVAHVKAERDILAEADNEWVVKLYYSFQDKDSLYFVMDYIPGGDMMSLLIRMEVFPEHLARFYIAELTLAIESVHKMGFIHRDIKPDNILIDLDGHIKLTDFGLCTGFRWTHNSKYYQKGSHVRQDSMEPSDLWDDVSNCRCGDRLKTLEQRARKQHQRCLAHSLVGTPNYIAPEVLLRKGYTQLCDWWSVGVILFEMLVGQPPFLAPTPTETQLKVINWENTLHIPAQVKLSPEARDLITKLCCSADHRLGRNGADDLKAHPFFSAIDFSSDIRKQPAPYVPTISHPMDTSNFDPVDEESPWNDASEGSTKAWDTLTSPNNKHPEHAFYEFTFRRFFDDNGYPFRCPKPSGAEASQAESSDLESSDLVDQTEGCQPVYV

Casein kinase I isoform alpha, sequence (P48729 2-337 limits assumed): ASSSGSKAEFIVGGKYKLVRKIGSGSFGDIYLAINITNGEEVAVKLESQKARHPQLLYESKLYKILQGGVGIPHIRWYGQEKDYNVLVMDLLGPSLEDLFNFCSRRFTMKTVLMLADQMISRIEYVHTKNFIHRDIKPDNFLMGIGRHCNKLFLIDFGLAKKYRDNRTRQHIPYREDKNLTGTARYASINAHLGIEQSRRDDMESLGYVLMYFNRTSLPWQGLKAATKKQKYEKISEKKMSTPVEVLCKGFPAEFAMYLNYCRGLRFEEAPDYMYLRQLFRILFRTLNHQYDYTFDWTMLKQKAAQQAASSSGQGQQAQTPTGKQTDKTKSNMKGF
Tyrosine-protein kinase Blk (Homo sapiens), sequence (P51451 2-505 limits assumed): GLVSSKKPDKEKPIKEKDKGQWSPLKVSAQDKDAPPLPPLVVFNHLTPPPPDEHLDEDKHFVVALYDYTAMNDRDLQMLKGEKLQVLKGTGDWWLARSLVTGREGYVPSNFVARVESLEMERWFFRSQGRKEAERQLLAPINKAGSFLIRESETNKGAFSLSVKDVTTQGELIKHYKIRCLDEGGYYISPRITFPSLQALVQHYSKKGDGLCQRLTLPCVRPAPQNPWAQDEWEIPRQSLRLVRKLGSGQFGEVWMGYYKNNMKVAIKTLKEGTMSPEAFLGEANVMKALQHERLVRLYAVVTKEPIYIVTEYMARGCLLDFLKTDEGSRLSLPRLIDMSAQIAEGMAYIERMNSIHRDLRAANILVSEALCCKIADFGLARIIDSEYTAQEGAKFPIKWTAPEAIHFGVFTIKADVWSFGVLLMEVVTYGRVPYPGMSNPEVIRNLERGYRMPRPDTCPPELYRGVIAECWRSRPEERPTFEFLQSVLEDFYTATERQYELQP
Serine/threonine-protein kinase NIM1, sequence (Q8IY84 whole entry): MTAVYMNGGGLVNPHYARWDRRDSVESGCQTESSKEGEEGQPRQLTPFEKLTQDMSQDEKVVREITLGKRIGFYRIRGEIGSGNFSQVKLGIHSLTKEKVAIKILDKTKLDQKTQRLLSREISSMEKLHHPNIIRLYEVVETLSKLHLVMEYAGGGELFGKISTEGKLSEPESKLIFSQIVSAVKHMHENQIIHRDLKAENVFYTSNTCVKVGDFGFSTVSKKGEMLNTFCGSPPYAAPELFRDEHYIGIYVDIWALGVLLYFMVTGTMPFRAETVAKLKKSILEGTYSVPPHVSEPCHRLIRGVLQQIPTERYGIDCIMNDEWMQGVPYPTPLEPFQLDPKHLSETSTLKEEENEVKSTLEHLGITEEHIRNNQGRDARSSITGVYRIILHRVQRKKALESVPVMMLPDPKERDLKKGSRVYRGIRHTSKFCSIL

With COc1cc(N(C)c2ccnc3ccc(C(F)(F)F)cc23)cc(OC)c1OC the % binding [1] was 43%.

With Cn1cc(-n2cnc3c(NCc4nc5cc(Cl)c(Cl)cc5[nH]4)nc(N4CCOCC4)nc32)cn1 the % of control [2] was 4.54% and the % of control [3] was 6.49%.

Work on CNC(=O)Nc1ccc(-c2nc(N3CC4CCC(C3)O4)c3cnn(C4CCC5(CC4)OCCO5)c3n2)cc1 yielded a % of inhibition [4] of 2%.

CN(C)C/C=C/C(=O)Nc1ccc(C(=O)N2CCCC(Nc3ncc(Cl)c(-c4c[nH]c5ccccc45)n3)C2)cc1 (stereo not given) gave a % of control [5] of 100%.
